In US10351586B2, “Cytidine derivative dimers and applications thereof” (CHANGZHOU FANGYUAN PHARMACEUTICAL CO., LTD, priority 2014, dated 2019):

How the values were obtained:
[1] = system: HCT-116 human colon cancer cells; experiment: Colony formation inhibition test on HCT-116 human colon cancer cells; format: cell-based
Description: 1. The colony formation inhibition test was used to evaluate the effect of four exemplary candidate compounds (D1, D2, D3, and D4) having concentrations of 50 nM, 150 nM and 450 nM on inhibiting cell proliferation of HCT-116 human colon cancer cells line.
2. Experiment material includes cell lines. HCT-116 human colon cancer cell line was purchased from the Chinese Academy of Sciences Shanghai Cell Resource Center, Cat # TCHu 99.
3. Reagent preparation includes HCT-116 human colon cancer cell culture medium, e.g., Dulbecco's Modified Eagle's medium (DMEM) medium with 10% fetal bovine serum (FBS). Compound solutions were prepared by dissolving and diluting the above synthesized compounds in dimethyl sulfoxide (DMSO) to a final concentration of about 100 μM.
Cell staining solution was prepared including 0.5% crystal violet solution prepared using absolute or anhydrous ethanol, and stored in dark. Before staining, the solution was mixed with phosphate buffered saline (PBS) buffer solution by volume ratio of 1:4 as the cell staining solution.
4. Cell culture: cells in logarithmic growth phase were collected, counted, and resuspended in complete culture medium. The cell concentration was adjusted to an appropriate concentration, 6-well culture plates were seeded, with about 300 cells and 1.8 mL of culture medium in each well. Cells were incubated for about 5 hours in an incubator at about 37° C. and about 100% relative humidity and under 5% CO2.
5. Cell colony formation inhibition test and data processing were performed including, for example, (a)-(i) as follows.
(a) Cells in logarithmic growth phase were collected and counted. The cells were re-suspended in culture medium containing 5% FBS, and counted. Six-well plates were seeded according to a rate of 300 cells per well. Cells were incubated for about 5 hours in an incubator at about 37° C. with 100% relative humidity and under 5% CO2.
(b) The compounds were diluted with culture medium (containing 5% FBS) to be concentrations of about 0.5 μM, 1.5 μM and 4.5 μM. Adding the compounds to cells in 200 μL per well, the final concentrations of the compounds were about 50 nM, 150 nM and 450 nM. Each concentration point was repeatedly tested for three times.
(c) Cells were incubated for about 72 hours in an incubator at 37° C. with 100% relative humidity and under 5% CO2. (d) The culture medium from the plates (the culture medium containing the compound(s) was aspirated. The plates were rinsed with Hank's Balance Salt Solution (HBSS) twice, and replaced with fresh culture medium (DMEM medium with 15% FBS).
(e) Cells were incubated for about 7-10 days in an incubator at about 37° C. and 100% relative humidity and under 5% CO2, until the formation of visible cloned plaques. (f) The culture medium was aspirated from the plates. The plates were rinsed twice with PBS solution. (g) The residual PBS was absorbed and removed, and ethanol was added at 1 mL per plate, fixing for 30 minutes.
(h) Ethanol was absorbed and removed, and cell staining solution was added, stained for 3 minutes. (i) The staining solution was aspirated. After rinsing three times with PBS, the cells were counted.
Data processing was performed. Cloning formation efficiency=[As/Ac]×100%; and colony formation inhibition rate=1−cloning formation efficiency, where As denotes number of cell colonies in compound-treated group (cells+compounds to be tested), and Ac denotes number of cell colonies in negative control (without treating with compound) (cells+1% DMSO).

[2] = Body weight / toxicity of a single intraperitoneal injection in HCT-116 colon tumor-bearing nude mice; conditions: D3 350 mg/kg, D4 300 mg/kg; for Average rate of weight change of the animals / Average weight of the animals: single IP injection (QD×1), D1 and D2 400 mg/kg; for Average weight of the animals: Mean±SEM
Description: Corresponding test substance was weighed and put into a 5 mL glass tube. The test substance was dissolved in ethanol under the stirring by a 5 mm magnetic stirrer. After a complete dissolution, Cremophor EL was added with continuous stirring. Immediately prior to the user of the test substance, the labeled amount of physiological saline was added and stirred.
Animal experiments were performed. The animals were female Balb/c nude mice at specific pathogen free (SPF) level and were supplied from Shanghai Sippr/BK Lab Animal Ltd. (Shanghai, China). […] These animals were at the age of about 7 weeks to about 9 weeks at the beginning of the experiments and had the weight of about 18 grams to about 22 grams at the beginning of the experiment. The animals had acclimatization duration of about 5 days to about 7 days. Animals were numbered using their tail number. The animal room was maintained at about 23±2° C., 40%-70% humidity, with alternating light and dark every 12 hours.
4.2 Animal inoculation and grouping were performed. Under aseptic conditions, each nude mice was injected with 0.1 mL cell suspension into the right hind leg subcutaneously (3×10^6 cell/mouse). When the size of the tumor grew to have a volume of about 60-150 mm^3, nude mice with a similar tumor size and a desirable shape (e.g., with substantially same shape such as a substantially spherical shape, without having irregular shapes or multiple tumors grouped together) were selected and grouped. In the experiment, there were six mice in each group.
The mice in control group were injected with a mixed solution including ethanol, Cremophor EL and normal saline at a ratio of 5:5:90.
The mice were weighed 3 times every week.
4.4 Clinical symptoms were provided. All clinical symptoms of each animal were recorded at the beginning of the experiments and during the experiments. The observation was performed at the same time every day.
After administration of the test substance, when the weight reduction was >20%, when the animal was dying, or when the tumor volume exceeds about 2800 mm^3, the animal were euthanized by applying CO2. The tumor was separated and weighed, an autopsy was performed, and visual inspection was conducted and recorded on whether there were pathological changes in the organs.

Compound: CCCCOC(=O)Nc1ccn(C2OC(COC(=O)CCC(=O)OC[C@H]3O[C@@H](n4ccc(NC(=O)OCc5ccccc5)nc4=O)C(F)(F)[C@@H]3O)C(O)C2(F)F)c(=O)n1 (stereo in doubt) [Compound D4, 1-O-(4-N-(Benzyloxycarbonyl)-gemcitabine)-4-O-(4-N-(n-Butoxycarbonyl)-gemcitabine)-succinate]
- Number of cell clones on HCT-116, mean ([1]; 50 nM, 72 h treatment, then 7-10 days): 235
- Number of cell clones on HCT-116, mean ([1]; 150 nM, 72 h treatment, then 7-10 days): 75
- Number of cell clones on HCT-116, mean ([1]; 450 nM, 72 h treatment, then 7-10 days): 11
- inhibition at 0.05 µM ([1]; Homo sapiens, HCT-116, 50 nM, 72 h treatment, then 7-10 days, read-out: % inhibition (colony formation inhibition rate)): 8.2%
- inhibition at 0.15 µM ([1]; Homo sapiens, HCT-116, 150 nM, 72 h treatment, then 7-10 days, read-out: % inhibition (colony formation inhibition rate)): 70.7%
- inhibition at 0.45 µM ([1]; Homo sapiens, HCT-116, 450 nM, 72 h treatment, then 7-10 days, read-out: % inhibition (colony formation inhibition rate)): 95.7%
- IC50 ([1]; Homo sapiens, HCT-116 cells, dose-response 50, 150, 450 nM, read-out: IC50 value (colony formation inhibition, FIG. 7)): ~112 nM
- Average rate of weight change of the animals ([2]; Day 0): 0.00%
- Average weight of the animals ([2]; Day 0): 20.15 ± 0.29 g
- Average rate of weight change of the animals ([2]; Day 1): −1.17 ± 1.27%
- Average weight of the animals ([2]; Day 1): 19.90 ± 0.19 g
- Average rate of weight change of the animals ([2]; Day 2): −8.18 ± 1.56 %
- Average weight of the animals ([2]; Day 2): 18.48 ± 0.2 g
- Average rate of weight change of the animals ([2]; Day 4): −5.33 ± 1.78%
- Average weight of the animals ([2]; Day 4): 19.07 ± 0.36 g
- Average rate of weight change of the animals ([2]; Day 7): −1.43 ± 1.92%
- Average weight of the animals ([2]; Day 7): 19.85 ± 0.38 g
- Average rate of weight change of the animals ([2]; Day 9): 2.91 ± 0.55 %
- Average weight of the animals ([2]; Day 9): 20.73 ± 0.29 g
- Average rate of weight change of the animals ([2]; Day 11): 4.47 ± 0.52 %
- Average weight of the animals ([2]; Day 11): 21.05 ± 0.31 g
- Average rate of weight change of the animals ([2]; Day 14): 3.72 ± 0.73 %
- Average weight of the animals ([2]; Day 14): 20.90 ± 0.34 g
- Average rate of weight change of the animals ([2]; Day 16): 6.62 ± 0.79 %
- Average weight of the animals ([2]; Day 16): 21.48 ± 0.34 g
- Average rate of weight change of the animals ([2]; Day 18): 8.99 ± 1.38 %
- Average weight of the animals ([2]; Day 18): 21.95 ± 0.27 g
- Average rate of weight change of the animals ([2]; Day 21): 7.41 ± 1.37 %
- Average weight of the animals ([2]; Day 21): 21.63 ± 0.30 g
- Average rate of weight change of the animals ([2]; Day 23): 9.37 ± 1.82 %
- Average weight of the animals ([2]; Day 23): 22.03 ± 0.43 g
- Average rate of weight change of the animals ([2]; Day 25): 10.69 ± 2.14 %
- Average weight of the animals ([2]; Day 25): 22.30 ± 0.49 g
- Average rate of weight change of the animals ([2]; Day 28): 8.62 ± 2.68%
- Average weight of the animals ([2]; Day 28): 21.88 ± 0.59 g
- Average rate of weight change of the animals ([2]; Day 30): 9.36 ± 2.21%
- Average weight of the animals ([2]; Day 30): 22.03 ± 0.53 g
- Toxicity in tumor-bearing mice (in words) ([2]; single IP injection, D2 400 mg/kg, judged from body weight versus control): no toxicity
